Test results taken from patent publication US9771563B2, “Chemical approaches for generation of induced pluripotent stem cells” (The Scripps Research Institute, priority 2008, dated 2017).

Legend:
[1] = test system: mouse fibroblasts; test: Reprogramming of mouse fibroblasts with exogenous poly-Arg transcription factor proteins; format: cell-based; settings: cells incubated with transcription factor proteins plus agent
Method: Mouse fibroblasts were grown in mESC medium supplemented with 8 μg/ml of either Oct4/Sox2/Klf4 or Oct4/Sox2/Klf4/Myc (all proteins comprising poly-Arg as described above) for 6-8 hours, washed, and incubated for 2-3 days in mESC media without the above-listed transcription factors. This (4-12 hours with, 1-3 days without) was repeated a number (1, 2, 3, 4, or more) of times and then the cells were cultured in mESC for two weeks.
Mouse fibroblasts were grown in mESC growth medium [Knockout DMEM (Invitrogen) supplemented with 10% ES-FBS+10% KSR, 0.1 mM 2-ME, 1% Glutamax, 1% Non-essential amino acids, 1% EmbryoMax ESC Qualified Nucleosides (Millipore), and 10^3 units/ml LIF (ESGRO, Chemicon International)] supplemented with 8 μg/ml of Oct4/Sox2/Klf4/Myc (all four transcription factors are tagged with poly-Arg […]; SEQ ID NO:2) for 4-12 hours, followed by culturing the cells in the absence of the Oct4/Sox2/Klf4/Myc polypeptides for one day. This procedure was repeated 4 times. The cells were then cultured in mESC medium for another two weeks. iPSC clones were detected by colony morphology and expression of pluripotency markers. An intermediate iPSC clone, which expresses ALP but not Oct4 (Oct4), was dissociated with Trypsin-EDTA. The clone was then expanded by continuous culturing with regular mESC medium or medium supplemented with 0.5 μM PD0325901, 3 μM CHIR99021, 0.5 μM A-83-01. The number of Oct4-positive colonies were counted 2 weeks after small molecule treatment (FIG. 14).

[2] = test system: MEFs (129, ROSA26+/-/OG2+/-); test: Reprogramming of MEFs transduced with Oct4/Sox2/Klf4 or Oct4/Klf4 with CHIR99021; format: cell-based, mouse
Method: Cell Culture and Viral Transduction: MEFs were derived from 129S2/SvPasCrlf and ROSA26^+/−/OG2^+/− mice according to the protocol reported on WiCell Research Institute website: “Introduction to human embryonic stem cell culture methods”. ROSA26^+/−/OG2^+/− heterozygous transgenic mice carry GFP reporter gene under the control of the Oct4 promoter (Oct4-GFP) and the ubiquitously expressed neo/lacZ transgene [Do J T, Scholer H R, Stem Cells, 22:941-949 (2004)]. Animal experiments were performed according to the Animal Protection Guidelines of the Max Planck Institute for Biomolecular Research, Germany. MEFs were transduced by Oct4, Klf4 and Sox2 three factors, or two-factor combinations of the pMXs-based retroviruses encoding mouse Oct4, Klf4 and Sox2 (Addgene) as previously described [Takahashi K, Yamanaka S, Cell, 126:663-676 (2006)]. […] MEFs transduced with Oct4/Klf4/Sox2 (lx 10^4 cells/well together with 10^5 cells/well CF1 feeders in 6-well plates) were then treated with GSK-3 inhibitor CHIR99021 (Stemgent) for two weeks, and EGFP positive colonies were picked up at the third week after treatment. MEFs transduced with Oct4/Klf4 (lx 10^5 cells/well in 6-well plates) were treated with 10 μM CHIR99021 for four weeks, GFP positive colonies were picked up and expanded at the fourth to fifth week after treatment.

[3] = test system: MEFs; test: Real-time PCR of pluripotency genes in untransduced MEFs after small molecule treatment; format: cell-based, mouse; settings: 10 μM CHIR99021, three days
Method: To detect the expression of pluripotency genes by MEFs and NHEKs that were treated with small molecules, untransduced MEFs and NHEKs were treated for three days in mESC growth medium with 10 μM CHIR99021 or in hES cell medium with either combination of 10 μM CHIR99021 and 2 μM Parnate or combination of 10 μM CHIR99021, 2 μM Parnate, 0.5 μM PD0325901 and 2 μM SB431542. For the semi-quantitative and quantitative RT-PCR analyses, RNA was extracted from miPSCs-OK, hiPSCs-OK, MEFs, treated MEFs and treated NHEKs using the RNeasy Plus Mini Kit in combination with QIAshredder (Qiagene). Reverse transcription was performed with 1 μg RNA using iScript™ cDNA Synthesis Kit (BioRad). […] Real-time PCR was carried out using iQ SYBR Green Supermix (BioRad). […] The expression of genes of interest was normalized to that of GAPDH in all samples.

[4] = test system: Normal Human Epidermal Keratinocytes (NHEKs); test: Reprogramming of lentivirally transduced NHEKs (TRA-1-81 colonies); format: cell-based; settings: 0.25 mM NaB vs 0.5 mM VPA
Text: Among several readily available primary human somatic cell types, keratinocytes that can be easily isolated from human skin or hair follicle represent an attractive cell source for reprogramming, because they endogenously express Klf4 and cMyc, and were reported to be reprogrammed more efficiently using the conventional four TFs or three TFs (without Myc) (Aasen et al., Nat Biotechnol 26, 1276-1284 (2008); Maherali et al., Cell Stem Cell 3, 340-345 (2008)). […] Furthermore, we have shown that such dual pathway inhibition could also enhance reprogramming of human keratinocytes by two exogenous TFs (i.e. OK) with two small molecules, Parnate (an inhibitor of lysine-specific demethylase 1) and CHIR99021 (a GSK3 inhibitor) (Li et al., Stem Cells 27, 2992-3000 (2009)). However, such 2-TFs reprogramming process was very inefficient and complex (e.g. involving two exogenous TFs and four chemicals), and reprogramming with even one less TF appeared daunting. Toward this end, we developed a step-wise strategy in refining reprogramming condition and identifying new reprogramming chemical entities. […]

Row | Compound | efficiency and speed of development of pluripotent cells [1] | GFP positive colonies out of 10^5 OG2 MEFs ([2]; Oct4/Klf4 transduction, 10 μM CHIR99021, 4-5 weeks) | reprogramming efficiency (GFP-positive colonies) ([2]; Oct4/Sox2/Klf4-transduced MEFs, about 10 μM, from 0.03-0.08% without) | number of AP-positive mESC-like colonies ([2]; Oct4/Sox2/Klf4 transduced MEFs, two weeks treatment, staining at third week) | expression of Sox2 and Oct4 (real-time PCR) [3] | generation of iPSCs under OK condition [4]
1 | Cc1c[nH]c(-c2cnc(NCCNc3ccc(C#N)cn3)nc2-c2ccc(Cl)cc2Cl)n1 [CHIR99021] | improved efficiency and speed of development of pluripotent cells | about six | 0.2-0.4 % of transduced MEFs | significantly increased the number of alkaline phosphase (AP)-positive mESC-like colonies in a dose-dependent manner | did not induce the expression of Sox2 and Oct4 in MEFs | 
2 | CCCC(=O)[O-].[Na+] [NaB, sodium butyrate] |  |  |  |  |  | much more reliable and efficient than the previously reported 0.5 mM VPA
